{"source": "patent US10718770B2", "about": "“Methods for screening compounds for treating or preventing a viral infection or a virus-related condition” (ABIVAX, priority 2015, dated 2020)", "key": {"[1]": {"tested_on": "alternative splicing events of endogenous genes", "test": "RT-PCR analysis of global alternative splicing events in PBMC samples", "type": "cell-based, human", "from_the_text": "Quantification of non-viral RNA splicing is achieved using the protocols detailed in Klinck et al. (Multiple alternative splicing markers for ovarian cancer. Cancer Res. 68, 657-663 (2008)) and Venables et al. (Cancer-associated regulation of alternative splicing. Nat. Struct. Mol. Biol. 16, 670-676 (2009)).\nThese 382 alternative splicing events (ASEs) represent a high throughput random snapshot of global alterations of alternative splicing. High throughput PCR analysis of these (essentially random) 382 ASEs on multiple PBMC samples was performed, either from untreated (cells) or treated with DMSO, Compound 1 or with the control antiviral drug (Darunavir). Analysis of the data allowed further stringent quality controls; ASEs were only considered if >75% of the products ran at the expected mobilities (i.e. if the reactions were pure) and if total expected PCR concentration was higher than 20 nM (i.e. if the reactions were strong) which led to 264 remaining ASEs."}, "YU2 HIV-1 virus": {"tested_on": "YU2 HIV-1 virus", "test": "Humanized mice infected with YU2 HIV-1 virus, viral load", "type": "in vivo, mouse (NSG humanized)", "settings": "after 30 days of 40 mg/kg daily", "procedure": "FIG. 7. Efficacy of Compound 1 to inhibit viral replication in humanized mice. A) Reconstituted SCID mice were infected with JRCSF HIV-1 strain by intraperitoneal injection. Control group received by gavage labrafil and 5% DMSO (n=15) and treated group 20 mg/kg b.i.d of Compound 1 in labrafil and 5% DMSO (n=14) for 15 days. Two independent experiments were performed with 5 and 10 reconstituted mice for each group. Viral load was assessed by measuring viral RNA using the Amplicor HIV-1 Monitor from Roche. B) FACS analysis was performed on peritoneal wash at day 15 post-treatment to assess the CD8/CD4 ratio. C) Engrafted NSG humanized mice were treated by oral gavage with Compound 1 at either 20 mg or 40 mg/kg once a day for 30 days and indicated lymphocyte populations (CD45+; CD4+ and CD8+) were monitored by FACS analysis. […] Viral load was assessed by measuring viral RNA using the Amplicor HIV-1 Monitor from Roche. […]\nBriefly, newborn (<5 days old) NSG mice received sub-lethal (1 Gy) total body irradiation with a Cs source, and then received […] transduced or untransduced CD34+ human HSCs using a 50 μl Hamilton syringe via the intrahepatic (i.h.) route. […] Mice were monitored three times a week for symptoms or signs of adverse events, according to a standard score sheet. […]"}, "PBMCs": {"tested_on": "PBMCs", "test": "Lymphocyte populations in treated PBMCs", "type": "cell-based, human"}}, "data": [{"smiles": "FC(F)(F)Oc1ccc(Nc2ccc3cccc(Cl)c3n2)cc1", "note": "[Compound 1, 8-chloro-N-(4-(trifluoromethoxy)phenyl)quinolin-2-amine]", "values": [{"measurement": "global effect on pre-mRNA splicing", "setting": "[1]", "value": "no global effect"}, {"measurement": "time the viral load remained low after treatment termination", "setting": "YU2 HIV-1 virus", "value": "at least 50 days"}, {"measurement": "effect on the different populations of lymphocytes present in PBMCs", "setting": "PBMCs", "value": "did not alter"}]}]}
